According to patent publication US11939609B2, “Rewiring aberrant cancer signaling to a therapeutic effector response with a synthetic two-component system” (The Board of Trustees of the Leland Stanford Junior …, priority 2017, dated 2024):

Columns and labels:
[1] = tested on: BT-474, H1975, MCF-7, MCF-10A and MRC-5 cells; conditions: 10 μM carboplatin + 10 μM paclitaxel; 10 μM lapatinib
MCF10A cells = test: Caspase-3 activity assay (fluorescent indicator imaging); assay type: cell-based; conditions: non-cancerous breast epithelium line
Source text: (§1) To package lentivirus, HEK293T cells at ˜70% confluency were transfected with psPAX2, pMD2.G, and pLL3.7 plasmids using Lipofectamine 2000 (Life Technologies). Two days following transfection, viral supernatant was filtered with a 0.45 μm PES filter before using to infect target cells. rAAVdj-CAG-RASER1C-mCardinal-BID and rAAVdj-mCardinal were produced at the Stanford Gene Vector and Virus Core (Stanford University). Virus infected cells were neither sorted nor purified prior to obtaining the results shown, to remain close to the actual use scenario.
(§2) NucView 488 Caspase-3 substrate (Biotium) and Hoechst 33342 (Invitrogen) were diluted into culture media to final concentrations of 1 μM each. After 1 h of incubation, cells were imaged with the Axiovert 200M with a 10×0.5-NA air objective.

MRC5 cells = test: as above; assay type: cell-based; conditions: non-cancerous lung fibroblast line
Source text: as §1, §2

Compound | cytotoxicity across ErbB-hyperactive and ErbB-normal cell lines [1] | apoptosis (caspase-3 fluorescent indicator) (MCF10A cells) | apoptosis (caspase-3 fluorescent indicator) (MRC5 cells)
CS(=O)(=O)CCNCc1ccc(-c2ccc3ncnc(Nc4ccc(OCc5cccc(F)c5)c(Cl)c4)c3c2)o1 [Lapatinib, lapatinib] | varied by cell line, but did not consistently correlate with ErbB status |  | 
CC(=O)O[C@H]1C(=O)[C@@]2(C)[C@H]([C@H](OC(=O)c3ccccc3)[C@]3(O)C[C@H](OC(=O)[C@H](O)[C@@H](NC(=O)c4ccccc4)c4ccccc4)C(C)=C1C3(C)C)[C@]1(OC(C)=O)CO[C@@H]1C[C@@H]2O [paclitaxel] |  | apoptosis is induced by paclitaxel | apoptosis is induced by paclitaxel
